Reference: ChEMBL document CHEMBL5126662, “Expanding the Ajudazol Cytotoxin Scaffold: Insights from Genome Mining, Biosynthetic Investigations, and Novel Derivatives” (J Nat Prod, 2022)
Activity calls are given as the source filed them.

Columns and labels:
Type in all cases: functional, cell-based
Details in all cases: time 5.0 day
[1] = tested on: HepG2; experiment: Antiproliferative activity against human HepG2 cells assessed as reduction in cell viability after 5 days by MTT assay
[2] = tested on: KB 3-1; experiment: Antiproliferative activity against human KB3.1 cells assessed as reduction in cell viability after 5 days by MTT assay
[3] = tested on: HCT-116; experiment: Antiproliferative activity against human HCT-116 cells assessed as reduction in cell viability after 5 days by MTT assay

Measured: Activity

C=C(C/C=C/C=C/CC/C=C/CN(C)C(=O)C=C(C)C)c1nc(C[C@@H](C)[C@H]2OC(=O)c3c(ccc(C)c3O)[C@@H]2O[C@@H]2O[C@H](CO)[C@@H](O)[C@H](O)[C@H]2O)co1
active: [1] | [2] | [3]

CC(C)=CC(=O)N(C)C/C=C/CC/C=C/C=C/CC(O)(CO[C@@H]1O[C@H](CO)[C@@H](O)[C@H](O)[C@H]1O)c1nc(C[C@@H](C)[C@H]2OC(=O)c3c(ccc(C)c3O)[C@@H]2O)co1 (some centres undefined)
active: [1] | [2] | [3]

C=C(C/C=C/C=C/CC/C=C/CN(C)C(=O)/C=C(\C)CO)c1nc(C[C@@H](C)[C@H]2OC(=O)c3c(ccc(C)c3O)[C@@H]2O)co1
active: [1] | [2] | [3]

C=C(C/C=C/C=C/CC/C=C/CN(C)C(=O)C=C(C)C)c1nc(C[C@@H](C)[C@H]2OC(=O)c3c(ccc(C)c3O)[C@@H]2O)co1
active: [1] | [2] | [3]

CC(C)=CC(=O)N(C)C/C=C/CC/C=C/C=C/CC(O)(CO)c1nc(C[C@@H](C)[C@H]2OC(=O)c3c(ccc(C)c3O)[C@@H]2O)co1 (some centres undefined)
active: [1] | [2] | [3]

CC(C)=CC(=O)N(C)C/C=C/CC/C=C/C=C/CC(O)(CO[C@@H]1O[C@H](CO)[C@@H](O)[C@@H]1O)c1nc(C[C@@H](C)[C@H]2OC(=O)c3c(ccc(C)c3O)[C@@H]2O)co1 (some centres undefined)
active: [1] | [2] | [3]

CC(C)=CC(=O)N(C)C/C=C/CC/C=C/C=C/C[C@@H](C)c1nc(C[C@@H](C)[C@H]2OC(=O)c3c(ccc(C)c3O)[C@@H]2O)co1
active: [1] | [2] | [3]

CC(C)=CC(=O)N(C)C/C=C/CC/C=C/C=C/CC(C)(O)c1nc(C[C@@H](C)[C@H]2OC(=O)c3c(ccc(C)c3O)[C@@H]2O)co1 (some centres undefined)
active: [1] | [2] | [3]
